Counter-ions that a name gives are not always drawn. Blank lines part the entries; values can stand above or below the molecule they belong to.
Experiment: Solution state stability of the hemi calcium salt of Formula I at various pH conditions
Format: physicochemical
Procedure: Solution state stability studies were performed on 7-[2-(4-fluorophenyl)-5-isopropyl-3-phenyl-4-[(4-hydroxymethylphenylamino) carbonyl]-pyrrol- 1-yl]-3,5-dihydroxy-heptanoic acid by solubilizing the hemi calcium salt of Formula I at a range of pH conditions and storing the solution for one or two weeks under different temperature conditions.

- Drug Content (pH 2.0 Buffer, 1 week, 2-8 °C): 0.21 mg/mL
- Drug Content (pH 2.0 Buffer, 1 week, 25 °C): 0.22 mg/mL
- Drug Content (pH 2.0 Buffer, 1 week, 50 °C): 0.14 mg/mL
- Drug Content (pH 2.0 Buffer, 2 Weeks, 2-8 °C): 0.19 mg/mL
- Drug Content (pH 2.0 Buffer, 2 Weeks, 25 °C): 0.18 mg/mL
- Drug Content (pH 2.0 Buffer, 2 Weeks, 50 °C): 0.09 mg/mL
- Drug Content (pH 2.0 Buffer, Initial): 0.42 mg/mL
- Drug Content (pH 4.5 Buffer, 1 week, 2-8 °C): 0.50 mg/mL
- Drug Content (pH 4.5 Buffer, 1 week, 25 °C): 0.50 mg/mL
- Drug Content (pH 4.5 Buffer, 1 week, 50 °C): 0.43 mg/mL
- Drug Content (pH 4.5 Buffer, 2 Weeks, 2-8 °C): 0.50 mg/mL
- Drug Content (pH 4.5 Buffer, 2 Weeks, 25 °C): 0.48 mg/mL
- Drug Content (pH 4.5 Buffer, 2 Weeks, 50 °C): 0.38 mg/mL
- Drug Content (pH 4.5 Buffer, Initial): 0.51 mg/mL
- Drug Content (pH 5.5 Buffer, 1 week, 2-8 °C): 0.50 mg/mL
- Drug Content (pH 5.5 Buffer, 1 week, 25 °C): 0.50 mg/mL
- Drug Content (pH 5.5 Buffer, 1 week, 50 °C): 0.45 mg/mL
- Drug Content (pH 5.5 Buffer, 2 weeks, 2-8 °C): 0.50 mg/mL
- Drug Content (pH 5.5 Buffer, 2 weeks, 25 °C): 0.48 mg/mL
- Drug Content (pH 5.5 Buffer, 2 weeks, 50 °C): 0.40 mg/mL
- Drug Content (pH 5.5 Buffer, Initial): 0.50 mg/mL
- Drug Content (pH 7.5 Buffer, 1 week, 2-8 °C): 0.50 mg/mL
- Drug Content (pH 7.5 Buffer, 1 week, 25 °C): 0.50 mg/mL
- Drug Content (pH 7.5 Buffer, 1 week, 50 °C): 0.45 mg/mL
- Drug Content (pH 7.5 Buffer, 2 Weeks, 2-8 °C): 0.49 mg/mL
- Drug Content (pH 7.5 Buffer, 2 Weeks, 25 °C): 0.49 mg/mL
- Drug Content (pH 7.5 Buffer, 2 Weeks, 50 °C): 0.37 mg/mL
- Drug Content (pH 7.5 Buffer, Initial): 0.50 mg/mL
- Drug Content (pH 9.0 Buffer, 1 week, 2-8 °C): 0.49 mg/mL
- Drug Content (pH 9.0 Buffer, 1 week, 25 °C): 0.49 mg/mL
- Drug Content (pH 9.0 Buffer, 1 week, 50 °C): 0.45 mg/mL
- Drug Content (pH 9.0 Buffer, 2 Weeks, 2-8 °C): 0.45 mg/mL
- Drug Content (pH 9.0 Buffer, 2 Weeks, 25 °C): 0.47 mg/mL
- Drug Content (pH 9.0 Buffer, 2 Weeks, 50 °C): 0.42 mg/mL
- Drug Content (pH 9.0 Buffer, Initial): 0.49 mg/mL
- Drug Content (pH 10.0 Buffer, 1 week, 2-8 °C): 0.49 mg/mL
- Drug Content (pH 10.0 Buffer, 1 week, 25 °C): 0.49 mg/mL
- Drug Content (pH 10.0 Buffer, 1 week, 50 °C): 0.45 mg/mL
- Drug Content (pH 10.0 Buffer, 2 Weeks, 2-8 °C): 0.49 mg/mL
- Drug Content (pH 10.0 Buffer, 2 Weeks, 25 °C): 0.47 mg/mL
- Drug Content (pH 10.0 Buffer, 2 Weeks, 50 °C): 0.44 mg/mL
- Drug Content (pH 10.0 Buffer, Initial): 0.49 mg/mL
- Drug Content (pH 12.0 Buffer, 1 week, 2-8 °C): 0.49 mg/mL
- Drug Content (pH 12.0 Buffer, 1 week, 25 °C): 0.49 mg/mL
- Drug Content (pH 12.0 Buffer, 1 week, 50 °C): 0.45 mg/mL
- Drug Content (pH 12.0 Buffer, 2 Weeks, 2-8 °C): 0.49 mg/mL
- Drug Content (pH 12.0 Buffer, 2 Weeks, 25 °C): 0.48 mg/mL
- Drug Content (pH 12.0 Buffer, 2 Weeks, 50 °C): 0.44 mg/mL
- Drug Content (pH 12.0 Buffer, Initial): 0.49 mg/mL
Structure (SMILES): CC(C)c1c(C(=O)Nc2ccc(CO)cc2)c(-c2ccccc2)c(-c2ccc(F)cc2)n1CCC(O)CC(O)CC(=O)O (centres unmarked) [hemi calcium salt of Formula I, 7-[2-(4-fluorophenyl)-5-isopropyl-3-phenyl-4-[(4-hydroxymethylphenylamino)carbonyl]-pyrrol-1-yl]-3,5-dihydroxy-heptanoic acid hemicalcium salt]

- pH at which the compound is stable in solution (conclusion from Table 1, more particularly pH 4.5 to pH 12): ≥ 4.5
Structure (SMILES): CC(C)c1c(C(=O)Nc2ccc(CO)cc2)c(-c2ccccc2)c(-c2ccc(F)cc2)n1CCC(O)CC(O)CC(=O)O (centres unmarked) [7-[2-(4-fluorophenyl)-5-isopropyl-3-phenyl-4-[(4-hydroxymethylphenylamino)carbonyl]-pyrrol-1-yl]-3,5-dihydroxy-heptanoic acid]

Source: US20070238716A1, “STATIN STABILIZING DOSAGE FORMULATIONS” (priority 2006, published 2007)
